The values that follow come from patent US10975078B2, “Fused indazole pyridone compounds as antivirals” (priority 2017, dated 2021).

Each structure is given as a SMILES string. pEC50: −log10 of the molar value.

The test system of the first assay is HBsAg secretion, HepG2-Clone42 cells (Tet-inducible HBV-expressing, HBV ayw strain). Description: HBsAg assay (HBsAg ELISA, secreted HBV sAg from HepG2-Clone42 cells). It is filed as cell-based. As to conditions: Hepatitis B virus, read-out: HBsAg (nM), EC50 = concentration at which HBsAg secretion was reduced 50% compared to DMSO control. The procedure, abridged: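 HepG2-Clone42 cells (Tet-inducible, integrated 1.3-mer HBV ayw) treated 24 h post-seeding with five-fold serial compound dilutions, 0.5% DMSO final. Secreted HBsAg measured by ELISA (A450); EC50 for 50% reduction vs DMSO control after background subtraction, four-parameter logistic fit.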
Regarding `COCCCOc1cccc2c3n(nc12)C[C@@H](C(C)(C)C)n1cc(C(=O)O)c(=O)cc1-3` [Example 9.1, (R)-6-(tert-butyl)-10-(3-methoxypropoxy)-2-oxo-6,7-dihydro-2H-pyrido[2′,1′:3,4]pyrazino[1,2-b]indazole-3-carboxylic Acid], the EC50 is under 1 nM.

As to `COCC(COc1cccc2c3n(nc12)CC(C(C)(C)C)n1cc(C(=O)O)c(=O)cc1-3)OC` (racemic) [Example 2.13, 6-(tert-butyl)-10-(2,3-dimethoxypropoxy)-2-oxo-6,7-dihydro-2H-pyrido[2′,1′:3,4]pyrazino[1,2-b]indazole-3-carboxylic Acid], the EC50 was 1 to 100 nM.

Turning to `CC(C)(C)C1Cn2nc3c(OCCOCC(F)(F)F)cccc3c2-c2cc(=O)c(C(=O)O)cn21` (stereo not drawn) [Example 2.3, 6-(tert-butyl)-2-oxo-10-(2-(2,2,2-trifluoroethoxy)ethoxy)-6,7-dihydro-2H-pyrido[2′,1′:3,4]pyrazino[1,2-b]indazole-3-carboxylic Acid], the EC50 is under 1 nM.

For `CC(C)(C)C1Cn2nc3c(OC4CCOC4)cccc3c2-c2cc(=O)c(C(=O)O)cn21` (racemic) [Example 2.37, 6-(tert-butyl)-2-oxo-10-((tetrahydrofuran-3-yl)oxy)-6,7-dihydro-2H-pyrido[2′,1′:3,4]pyrazino[1,2-b]indazole-3-carboxylic Acid], the EC50 fell in the range of 1 to 100 nM.

For `CCOc1cccc2c3n(nc12)CC(C(C)(C)C)n1cc(C(=O)O)c(=O)cc1-3` (racemic) [Example 2.42, 6-(tert-butyl)-10-ethoxy-2-oxo-6,7-dihydro-2H-pyrido[2′,1′:3,4]pyrazino[1,2-b]indazole-3-carboxylic Acid], the EC50 was under 1 nM.

Regarding `CC(C)(C)C1Cn2nc3c(OCCN4CCCC4=O)cccc3c2-c2cc(=O)c(C(=O)O)cn21` (racemic) [Example 2.20, 6-(tert-butyl)-2-oxo-10-(2-(2-oxopyrrolidin-1-yl)ethoxy)-6,7-dihydro-2H-pyrido[2′,1′:3,4]pyrazino[1,2-b]indazole-3-carboxylic Acid], the EC50 was in the range of 1 to 100 nM.

Staying with this assay, now noted: read-out: HBsAg, EC50 = concentration at which HBsAg secretion was reduced 50% compared to DMSO control.
Turning to `CC(C)Oc1cccc2c3n(nc12)CC(C(C)(C)C)n1cc(C(=O)O)c(=O)cc1-3` (single isomer, unassigned) [Example 2.47-II, 6-(tert-butyl)-10-isopropoxy-2-oxo-6,7-dihydro-2H-pyrido[2′,1′:3,4]pyrazino[1,2-b]indazole-3-carboxylic Acid], the pEC50 is over 9.00.

In the case of `COc1cccc2nn3c(c12)-c1cc(=O)c(C(=O)O)cn1C(C(C)(C)C)C3` (single isomer, unassigned) [Example 1.4-II, 6-(tert-butyl)-13-methoxy-2-oxo-6,7-dihydro-2H-pyrido[2′,1′:3,4]pyrazino[1,2-b]indazole-3-carboxylic acid], the pEC50 was 7.00 to 9.00.

Consider `COc1ccc2c3n(nc2c1)CC(C(C)(C)C)n1cc(C(=O)O)c(=O)cc1-3` (single isomer, unassigned) [Example 1.2-II, 6-(tert-butyl)-11-methoxy-2-oxo-6,7-dihydro-2H-pyrido[2′,1′:3,4]pyrazino[1,2-b]indazole-3-carboxylic acid], for which the pEC50 was 7.00 to 9.00.

Consider `COc1cccc2c3n(nc12)C1CCC(C)(C)C1n1cc(C(=O)O)c(=O)cc1-3` (single isomer, unassigned) [Example 5.1-II, 12-methoxy-3,3-dimethyl-7-oxo-2,3,3a,14a-tetrahydro-1H,7H-cyclopenta[5,6]pyrido[2′,1′:3,4]pyrazino[1,2-b]indazole-6-carboxylic Acid], for which the pEC50 was under 7.00.

In the case of `CC(C)(C)C1Cn2nc3c(OC[C@@H]4CCC(=O)N4)cccc3c2-c2cc(=O)c(C(=O)O)cn21` (single isomer, unassigned) [Example 2.33-II], the pEC50 is under 7.00.

As for `COCCCOc1cccc2c3n(nc12)C1CCC(C)(C)C1n1cc(C(=O)O)c(=O)cc1-3` (single isomer, unassigned) [Example 6.1-I, 12-(3-methoxypropoxy)-3,3-dimethyl-7-oxo-2,3,3a,14a-tetrahydro-1H,7H-cyclopenta[5,6]pyrido[2′,1′:3,4]pyrazino[1,2-b]indazole-6-carboxylic Acid], the pEC50 is under 7.00.

On to `COc1cccc2c3n(nc12)CC(C(C)(C)C)n1cc(C(=O)O)c(=O)cc1-3` (single isomer, unassigned) [Example 1.1-II, 6-(tert-butyl)-10-methoxy-2-oxo-6,7-dihydro-2H-pyrido[2′,1′:3,4]pyrazino[1,2-b]indazole-3-carboxylic acid], for which the pEC50 is under 7.00.

For the compound `COc1cccc2nn3c(c12)-c1cc(=O)c(C(=O)O)cn1C(C(C)(C)C)C3` (single isomer, unassigned) [Example 1.4-I, 6-(tert-butyl)-13-methoxy-2-oxo-6,7-dihydro-2H-pyrido[2′,1′:3,4]pyrazino[1,2-b]indazole-3-carboxylic acid], the pEC50 is under 7.00.

As to `COCCCOc1cccc2c3n(nc12)CC(C(C)(C)C)n1cc(C(=O)O)c(=O)c(F)c1-3` (single isomer, unassigned) [Example 8.1-II, 6-(tert-butyl)-1-fluoro-10-(3-methoxypropoxy)-2-oxo-6,7-dihydro-2H-pyrido[2′,1′:3,4]pyrazino[1,2-b]indazole-3-carboxylic Acid], the pEC50 was 7.00 to 9.00.
